Test results reported in patent US4734409A, “Cephalosporin derivative, process for producing the same and pharmaceutical composition containing the same” (Kureha Kagaku Kogyo Kabushiki Kaisha, priority 1984, dated 1988).

What was measured:
Format in all cases: cell-based
[1] = test system: Escherichia coli IFO 12734; test: Antibacterial activity, agar plate dilution method: E. coli IFO 12734; conditions: Mueller-Hinton agar, 10^6 cells/ml, 37° C., 18 to 24 hours
Protocol: (§1) Antibacterial activity of the present compound was examined by agar plate dilution method while following the standard method of Japan Society of Chemotherapy and using the following strain: 1. Escherichia coli IFO 12734 Namely, after inoculating each bacteria on Mueller-Hinton culture medium, the inoculum was incubated for 18 to 48 hours at 37° C. and after adjusting the number of cells of each bacteria so as to contain 10^6 in one ml, the thus prepared specimen was used as the test bacterial liquid. Each of the present substances (the substance in Example 1 and the substance in Example 2) was dispersed in aqueous physiological saline solution at a predetermined concentration and the thus prepared dispersion was added to 9 times by volume of the culture medium for examining sensitivity (Mueller-Hinton culture medium) to prepare agar plates. On each agar plate, each of the test bacterial liquid was smeared at a width of about 2 cm, and the thus smeared agar plate was incubated for 18 to 24 hours at 37° C.

Escherichia coli W 3636 = test: Antibacterial activity, agar plate dilution method: E. coli W 3636; conditions: Mueller-Hinton agar, 10^6 cells/ml, 37° C., 18 to 24 hours
Protocol: (§2) Antibacterial activity of the present compound was examined by agar plate dilution method while following the standard method of Japan Society of Chemotherapy and using the following strain:
(§3) 3. Escherichia coli W 3636
(§4) Namely, after inoculating each bacteria on Mueller-Hinton culture medium, the inoculum was incubated for 18 to 48 hours at 37° C. and after adjusting the number of cells of each bacteria so as to contain 10^6 in one ml, the thus prepared specimen was used as the test bacterial liquid.
(§5) Each of the present substances (the substance in Example 1 and the substance in Example 2) was dispersed in aqueous physiological saline solution at a predetermined concentration and the thus prepared dispersion was added to 9 times by volume of the culture medium for examining sensitivity (Mueller-Hinton culture medium) to prepare agar plates.
(§6) On each agar plate, each of the test bacterial liquid was smeared at a width of about 2 cm, and the thus smeared agar plate was incubated for 18 to 24 hours at 37° C.

[2] = test system: Pseudomonas aeruginosa IAM 1514; test: Antibacterial activity, agar plate dilution method: P. aeruginosa IAM 1514; conditions: Mueller-Hinton agar, 10^6 cells/ml, 37° C., 18 to 24 hours
Protocol: as §1, with “5. Pseudomonas aeruginosa IAM 1514” for “1. Escherichia coli IFO 12734”

[3] = test system: Proteus vulgaris IAM 1025; test: Antibacterial activity, agar plate dilution method: P. vulgaris IAM 1025; conditions: Mueller-Hinton agar, 10^6 cells/ml, 37° C., 18 to 24 hours
Protocol: as §1, with “4. Proteus vulgaris IAM 1025” for “1. Escherichia coli IFO 12734”

[4] = test system: bacteria (strains of Table 3); test: Antibacterial activity, agar plate dilution method, overall; conditions: as seen from Table 3
Protocol: as §2
2. Staphylococcus aureus IAM 1011
as §3
4. Proteus vulgaris IAM 1025
5. Pseudomonas aeruginosa IAM 1514
6. Serratia marcescens IAM 1223
as §4, §5, §6

[5] = test system: Staphylococcus aureus IAM 1011; test: Antibacterial activity, agar plate dilution method: S. aureus IAM 1011; conditions: Mueller-Hinton agar, 10^6 cells/ml, 37° C., 18 to 24 hours
Protocol: as §1, with “2. Staphylococcus aureus IAM 1011” for “1. Escherichia coli IFO 12734”

[6] = test system: Serratia marcescens IAM 1223; test: Antibacterial activity, agar plate dilution method: S. marcescens IAM 1223; conditions: Mueller-Hinton agar, 10^6 cells/ml, 37° C., 18 to 24 hours
Protocol: as §1, with “6. Serratia marcescens IAM 1223” for “1. Escherichia coli IFO 12734”

## CO/N=C(\C(=O)N[C@@H]1C(=O)N2C(C(=O)O)=C(CSc3nnc(C)s3)CS[C@H]12)c1csc(NC(=O)C(Cl)Cl)n1 [Example 1, 7β-[2-(2-dichloroacetamido-4-thiazolyl)-(Z)-2-methoxyiminoacetamido]-3-[(2-methyl-1,3,4-thiadiazol-5-yl)thiomethyl]-3-cephem-4-carboxylic acid]
[1]
  minimal inhibitory concentration (MIC), E. coli IFO 12734: 0.1
Escherichia coli W 3636
  minimal inhibitory concentration (MIC), E. coli W 3636: 0.4
[2]
  minimal inhibitory concentration (MIC), P. aeruginosa IAM 1514: 50
[3]
  minimal inhibitory concentration (MIC), Pro. vulgaris IAM 1025: 0.05
[4]
  antibacterial activity (in words): shows an antibacterial activity
[5]
  minimal inhibitory concentration (MIC), S. aureus IAM 1011: 0.78
[6]
  minimal inhibitory concentration (MIC), S. marcescens IAM 1223: 0.4

## CO/N=C(\C(=O)N[C@@H]1C(=O)N2C(C(=O)OCOC(=O)C(C)(C)C)=C(CSc3nnc(C)s3)CS[C@H]12)c1csc(NC(=O)C(Cl)Cl)n1 [Example 2]
[1]
  minimal inhibitory concentration (MIC), E. coli IFO 12734: 50
Escherichia coli W 3636
  minimal inhibitory concentration (MIC), E. coli W 3636: ≥ 100
[2]
  minimal inhibitory concentration (MIC), P. aeruginosa IAM 1514: ≥ 100
[3]
  minimal inhibitory concentration (MIC), Pro. vulgaris IAM 1025: 50
[4]
  antibacterial activity (in words): shows a low antibacterial activity
[5]
  minimal inhibitory concentration (MIC), S. aureus IAM 1011: ≥ 100
[6]
  minimal inhibitory concentration (MIC), S. marcescens IAM 1223: ≥ 100
